Laboratory results taken from article PMC8734228 (Cancer discovery, 2021).
pEC50, pIC50, pKi: −log10 of the molar value. Where two headings read alike, the source gives them in different places. Blank lines part the entries; values can stand above or below the compound they belong to.

Experiments:
FLC1 PDX cells = assay: Validation screen, 11-point dose response, 72 h, Cell Titer Glo; assay type: cell-based, human; conditions: read-out: EC50 FLC
FLC2 PDX cells = assay: as above; assay type: cell-based, human; conditions: read-out: EC50 FLC
FLC3 PDX cells = assay: as above; assay type: cell-based, human; conditions: read-out: EC50 FLC
FLC4 PDX cells = assay: as above; assay type: cell-based, human; conditions: read-out: EC50 FLC
FLC PDX cells = assay: Validation screen on cells dissociated from FLC PDX; assay type: cell-based, human
PKA = conditions: read-out: Ki PKA; cited from earlier work
GSK-3β = conditions: read-out: Ki against other kinases: GSK-3β; cited from earlier work
ERK2 = conditions: read-out: Ki against other kinases: ERK2; cited from earlier work
PKCδ = conditions: read-out: Ki against other kinases: PKCδ; cited from earlier work
RSK2 = conditions: read-out: Ki against other kinases: RSK2; cited from earlier work
FLC5 PDX cells = assay: Validation screen, 11-point dose response, 72 h, Cell Titer Glo; assay type: cell-based, human; conditions: read-out: EC50 FLC
FLC5 cells = assay: Anchor screen, synergy assay; assay type: cell-based, human; conditions: FLC5, ZIP, Bliss and HSA scores
[1] = test system: cells dissociated directly from patient tumors (FLC.T6-T11); assay: Direct from patient in vitro screening; assay type: cell-based, human; conditions: for Drug sensitivity of FLC.T6 compared with derived PDX FLC6 (EC50): cells direct from patient tumor vs cells from its PDX; for Sensitivity of cells tested directly from patients: 10μM-10nM, 72h, Cell Titer Glo
Akt1 = conditions: read-out: Ki against other kinases: Akt1; cited from earlier work
Akt2 = conditions: read-out: Ki against other kinases: Akt2; cited from earlier work
Akt3 = conditions: read-out: Ki against other kinases: Akt3; cited from earlier work
p70s6k = conditions: read-out: Ki against other kinases: p70s6k; cited from earlier work
Rock1 = conditions: read-out: Ki against other kinases: Rock1; cited from earlier work
Rock2 = conditions: read-out: Ki against other kinases: Rock2; cited from earlier work
[2] = test system: primary human hepatocytes (PHH); assay: Validation counter-screen on primary human hepatocytes; conditions: 72 h, read-out: EC50 PHH
PKG = conditions: read-out: Ki against other kinases: PKG; printed as PKG/PKC; cited from earlier work
PKC = conditions: read-out: Ki against other kinases: PKC; printed as PKG/PKC; cited from earlier work
PI3K (p110α)/DNA-PK = conditions: read-out: IC50 PI3K (p110α)/DNA-PK; cited from earlier work
FLC1 cells = assay: Role of ROS: survival with or without N-acetyl cysteine 10mM; assay type: cell-based, human; conditions: NAC 10mM, 72 h
FLC1 PDX = assay: In vivo drug testing in mice bearing PDX FLC1; conditions: 2 days, FLC1
FLC PDX = assay: In vivo drug testing of HDAC inhibitors in mice bearing PDX
FLC5 PDX = assay: In vivo drug testing in mice bearing PDX FLC5; conditions: panobinostat 2.5mg/kg combined with navitoclax 50 mg/kg

Structure (SMILES): Cc1[nH]nc2ccc(-c3cncc(OC[C@@H](N)Cc4ccccc4)c3)cc12 [A-674563]
pEC50 (FLC1 PDX cells; FLC1, 72 h): 6.47
pEC50 (FLC2 PDX cells; FLC2, 72 h): 6.15
pEC50 (FLC3 PDX cells; FLC3, 72 h): 6.06
pEC50 (FLC4 PDX cells; FLC4, 72 h): 6.80
Therapeutic window for FLC over PHH (FLC PDX cells; FLC PDX cells compared with PHH): no therapeutic window
pKi (PKA): 7.80
pKi (GSK-3β): 6.96
pKi (ERK2): 6.59
pKi (PKCδ): 6.44
pKi (RSK2): 6.24

Structure (SMILES): NC[C@@](O)(c1ccc(Cl)cc1)c1ccc(-c2cn[nH]c2)cc1 [AT13148]
pEC50 (FLC1 PDX cells; Homo sapiens, 72 h): 7.41
pEC50 (FLC2 PDX cells; Homo sapiens, 72 h): 5.21
pEC50 (FLC3 PDX cells; Homo sapiens, 72 h): 6.23
pEC50 (FLC4 PDX cells; Homo sapiens, 72 h): 5.37
pEC50 (FLC5 PDX cells; Homo sapiens, 72 h): 7.02
Synergy with A1331852 (FLC5 cells): some synergy
Drug sensitivity of FLC.T6 compared with derived PDX FLC6 (EC50) [1]: outliers
pKi (PKA): 8.52
pKi (Akt1): 7.42
pKi (Akt2): 6.40
pKi (Akt3): 7.30
pKi (p70s6k): 8.10
pKi (Rock1): 8.22
pKi (Rock2): 8.40
pEC50 ([2]; Homo sapiens, Hepatocyte): 5.39

Structure (SMILES): CCCCCCOC(=O)[C@]1(O)C[C@@H]2O[C@@]1(C)n1c3ccccc3c3c4c(c5c6ccccc6n2c5c31)C(=O)NC4 [KT5720]
pEC50 (FLC1 PDX cells; FLC1, 72 h): 5.79
pEC50 (FLC2 PDX cells; FLC2, 72 h): 5.67
pEC50 (FLC3 PDX cells; FLC3, 72 h): 5.57
pEC50 (FLC4 PDX cells; FLC4, 72 h): 5.83
pEC50 (FLC5 PDX cells; FLC5, 72 h): 5.41
pKi (PKA): 7.22
pKi (PKG): < 5.70
pKi (PKC): < 5.70
pEC50 [2]: < 5.00

Structure (SMILES): Cc1ccc([N+](=O)[O-])cc1S(=O)(=O)N(C)/N=C/c1cnc2ccc(Br)cn12 [PIK-75]
Effect on FLC PDX cells in vitro (dose response, normalized percent survival) (FLC PDX cells; 10nM-10μM, 72 h, FLC1-6): potent against FLC1,4 relative to PHH
Sensitivity of cells tested directly from patients [1]: sensitive
pIC50 (PI3K (p110α)/DNA-PK): 8.24

Average weight loss (FLC PDX; 10mg/kg IP, 14 days): 11%
Drug sensitivity of FLC.T6 compared with derived PDX FLC6 (EC50) [1]: correlated well
Structure (SMILES): Cc1[nH]c2ccccc2c1CCNCc1ccc(/C=C/C(=O)NO)cc1 [panobinostat]
Efficacy ranking in the screen (FLC PDX cells; ranked by average −log10EC50 for FLC1-5 minus −log10EC50 for PHH): 103
Effect of N-acetyl cysteine (NAC) on the toxicity of the drug (FLC1 cells): mildly attenuated
Apoptosis (TUNEL), panobinostat alone compared to vehicle (FLC1 PDX; panobinostat 10mg/kg alone): no evidence of increased apoptosis
Apoptotic cells (TUNEL) with combined treatment (FLC1 PDX; panobinostat 10mg/kg combined with A1331852 25mg/kg): many apoptotic cells
Tumor growth at 7 days (FLC PDX; 10mg/kg IP): −7%
Tumor growth at 14 days (FLC PDX; 10mg/kg IP): 4%
Tumor volume:mouse weight (FLC PDX; 10mg/kg IP, 14 days): stable or decreased
Apoptosis as assayed by TUNEL (FLC PDX; 10mg/kg, after 14 days): no increase in apoptosis
Mitotic figures, Ki67 and pHH3 positive cells in tumors (FLC PDX; 10mg/kg, after 14 days): dramatic decrease
Tumor response with combined treatment (FLC5 PDX): partial response
Sensitivity of cells tested directly from patients [1]: sensitive
